Test results as given in patent US20070107074A1, “Porcine Nuclear Transfer” (Garelag Pty Ltd., priority 1998, published 2007).

Experiments:
porcine morulae = assay: In vitro development of porcine morulae following NZ treatment; assay type: cell-based; conditions: 15 h
Experimental: In vitro culture of oocytes, embryos and nuclear transfer embryos was conducted in 25 μl droplets of Whitten's medium (Whitten W K, 1971, in G Raspe, ed Advances in the Biosciences, Pergamon Press: Oxford, pp 129-141) supplemented with 15 mg/ml bovine serum albumin (BSA) under paraffin oil in a plastic petrie dish under an atmosphere of 5% CO2, 5% O2 and 90% N2 in humidified air at […].

[1] = test system: porcine blastomere nuclei; assay: Metaphase arrest induced in porcine blastomere nuclei following treatment with nocodazole; assay type: cell-based
Source text: Preferably, karyoplasts may be synchronized at the G1 state using a DNA synthesis inhibitor and/or use of a microtubule inhibitor which, on following removal of the inhibitor(s), results in synchronization of the karyoplast at the G1 state, or by means other than DNA inhibition, excluding serum starvation, for example cdk kinase inhibitors such as Butyrolactone I (Motlik et al (1998) Theriogeneology 49: 461-469). Examples of DNA synthesis inhibitors include: aphidicolin, hydroxyurea, cytosine arabinoside, 5-fluorouracil, n-ethylmalemide and etoposide. Any microtubule inhibitor may be used in this invention including nocodazole, colchecine or colcemid. Alternatively, a microtubule stabilizer such as, for example, taxol may be used. Karyoplasts may, for example, be synchronized at G1 by the use of a microtubule inhibitor such as nocodazole (to give a population of nuclei at the metaphase) followed by treatment with a DNA synthesis inhibitor such as aphidicolin in which the nuclei progress to an arrest at the G1 state. […] Karyoplasts may be synchronized in the Go state by nutrient deprivation, such as incubation in a low serum containing medium, as is known in the art, or by chemical treatment. Donor karyoplasts (such as cells) may be incubated in a standard culture medium with a DNA synthesis inhibitor and/or microtubule inhibitor for a time sufficient to synchronize the cells at the G1 state. This can be readily observed by microscopic observations. DNA synthesis inhibitors and/or microtubule inhibitors may be used, for example, in an amount of from about 0.01 μg/ml to about 50 μg/ml, such as about 1-5 μg/ml culture medium. Microtubule inhibitors fix the cells at the M phase. After removal of microtubule inhibitor from the cell media, which can conveniently be done by washing the cells, cells pass to the G1 phase after about 30 minutes to 6 hours in a uniform manner such that a plurality of cells in the G1 phase can be conveniently prepared. A DNA synthesis inhibitor synchronises cells at the G1 phase. Removal of a DNA synthesis inhibitor from cell media allows the cell cycle to proceed. Similarly donor karyoplasts may be synchronized in the G0 state as described above.

For `COC(=O)Nc1nc2ccc(C(=O)c3cccs3)cc2[nH]1` [NZ, nocodazole], the Development to blastocyst (porcine morulae; NZ 0.5 μg/ml, 3 repeats) was 70%, the Development to blastocyst (porcine morulae; NZ 0.5 μg/ml, 3 repeats, number of blastocysts/total) was 14/20 and the Development to blastocyst (porcine morulae; NZ 1 μg/ml, 4 repeats) was 57%. For the same compound, the Development to blastocyst (porcine morulae; NZ 1 μg/ml, 4 repeats, number of blastocysts/total) was 17/30, the “Blastomeres at M” value ([1]; 4 h exposure, NZ 1 μg/ml) was “(24%)” and the “Blastomeres at M” value ([1]; 4 h exposure, NZ 1 μg/ml, number at M/total) was 14/58. For the same compound, the “Blastomeres at M” value ([1]; 7 h exposure, NZ 1 μg/ml) was “(41%)”, the “Blastomeres at M” value ([1]; 7 h exposure, NZ 1 μg/ml, number at M/total) was 54/133 and the “Blastomeres at M” value ([1]; 15 h exposure, NZ 0.5 μg/ml) was “(76%)”. The “Blastomeres at M” value ([1]; 15 h exposure, NZ 0.5 μg/ml, number at M/total) was 101/133, the “Blastomeres at M” value ([1]; 15 h exposure, NZ 1 μg/ml) was “(96%)” and the “Blastomeres at M” value ([1]; 15 h exposure, NZ 1 μg/ml, number at M/total) was 257/267.
